US6306853A, “1,4-Dihydropyridine derivatives” (Nikken Chemicals Co., Ltd., priority 1998, dated 2001)
Several values for one entry are separate records, joined by “and”; a condition that tells them apart may be missing. Equal values may be shown once.

Assays:
[1] = test system: VCR resistant murine leukemia (P388/VCR) cells; experiment: In vivo overcoming of resistance in VCR resistant murine leukemia (P388/VCR) bearing mice, etoposide with compound 20 mg/kg; design: species or system CDF1 female mice; settings: for Average days of survival / Rate of prolongation of life T/C: VP-16 3 mg/kg + compound 20 mg/kg
Experimental: In Vivo Test of Action Suppressing Proliferation of Cancer Cells by Combined Administration of Anti-cancer Drug Etoposide
Effect of Overcoming Resistance to an Anti-cancer Drug for VCR Resistant Murine Leukemia Cell Bearing Mice
(§1) 1.2×10^5 VCR resistant murine leukemia (P388/VCR) cells were transplanted intravenously into groups of 5-6 CDF1 female mice, then the compound of the present invention (20 mg/kg) and Etoposide (VP-16) (3 mg/kg) were administered intravenously once per day for 5 days, after dissolving them in a physiological salt solution containing a small amount of hydrochloric acid. The observation was started from the next day. The number of survival days were found and the life prolonging rate (T/C) with respect to the controls was found. The effect in overcoming resistance to an anti-cancer drug (T/V) was found by the following formula.
(§2) Effect of overcoming resistance to the anti-cancer drug (T/V) %
(§3) =[(Rate of prolongation of life using VP-16 and the present compound (T/C))/(Rate of prolongation of life using VP-16 alone (T/C))]×100

[2] = test system: VCR resistant murine leukemia (P388/VCR) cells; experiment: In vivo overcoming of resistance in VCR resistant murine leukemia (P388/VCR) bearing mice, etoposide with compound 10 mg/kg; design: species or system CDF1 female mice; settings: for Average days of survival / Effect of overcoming resistance T/V / Rate of prolongation of life T/C: VP-16 3 mg/kg + compound 10 mg/kg; for Effect of overcoming resistance T/V: vs VP-16 alone
Experimental: as §1, §2, §3
In Vivo Test of Action Suppressing Proliferation of Cancer Cells by Combined Administration of Anti-Cancer Drug Etoposide
The Test Example 3 was repeated using 10 mg/kg administration of the present compound and the effects of overcoming resistance to the anti-cancer drug were determined from the average days of survival.

[3] = i.v. once per day for 5 days, vs control
[4] = VP-16 alone 3 mg/kg, reference = 100

Row | SMILES | Average days of survival ([1]; i.v. once per day for 5 days) [days] | Rate of prolongation of life T/C [1, 3] [%] | other results
1 | CCOC(=O)C1=C(c2ccc(-n3c(C)nc4cnccc43)cc2)NC(C)=C(C(=O)OCC#Cc2cccnc2)C1CCc1ccccc1OC (stereo not shown) [Compound 13, 4-[2-(2-methoxyphenyl)ethyl]-6-methyl-2-[4-(2-methylimidazo[4,5-c]pyridin-1-yl)phenyl]-1,4-dihydropyridin-3,5-dicarboxylate 3-ethylester 5-[3-(3-pyridyl)-2-propynyly]ester] | 15.7 | 154 | 
2 | CCOC(=O)C1=C(c2ccc(-n3c(C)nc4cnccc43)cc2)NC(C)=C(C(=O)OCC#Cc2cccnc2)C1C=C1c2ccccc2C2C(c3ccccc31)C2(F)F (stereo not shown) [Compound 67, 4-(1,1-Difluoro-1,1a,6,10b-tetrahydrodibenzo[a,e]cyclopropa[c]cyclohepten-6-ylidenemethyl)-6-methyl-2-[4-(2-methylimidazo[4,5-c]pyridin-1-yl)phenyl]-1,4-dihydropyridin-3,5-dicarboxylate 3-ethylester 5-[3-(3-pyridyl)-2-propynyl]ester] | 14.3 | 139 | 
3 | CCOC(=O)C1=C(c2ccc(-n3c(C)nc4cnccc43)cc2)NC(C)=C(C(=O)OCC#Cc2cccnc2)C1CCc1ccccc1Cl (stereo not shown) [Compound 11, 4-[2-(2-Chlorophenyl)ethyl]-6-methyl-2-[4-(2-methylimidazo[4,5-c]pyridin-1-yl)phenyl]-1,4-dihydropyridin-3 ,5-dicarboxylate 3-ethylester 5-[3-(3-pyridyl)-2-propynyl]ester] | 15.8 | 155 | 
4 | CCOC(=O)C1=C(c2ccc(-n3c(C)nc4cnccc43)cc2)NC(C)=C(C(=O)OCC#Cc2cccnc2)C1CC1c2ccccc2C2C(c3ccccc31)C2(F)F (stereo not shown) [Compound 66, 4-(1,1-Difluoro-1,1a,6, 10b-tetrahydrodibenzoa,[a,e]cyclopropa[c]cyclohepten-6-ylmethyl)-6-methyl-2-[4-(2-methylimidazo[4,5-c]pyridin-1-yl)phenyl]-1,4-dihydropyridin-3,5-dicarboxylate 3-ethylester 5-[3-(3-pyridyl)-2-propynyl]ester] | 14.5 | 141 | 
5 | CCOC(=O)C1=C(c2ccc(-n3c(C)nc4cnccc43)cc2)NC(C)=C(C(=O)OCC#Cc2cccnc2)C1/C=C/c1ccccc1Cl (stereo not shown) [Compound 12, 4-[(E)-2-(2-chlorophenyl)ethenyl]-6-methyl-2-[4-(2-methylimidazo[4,5-c]pyridin-1-yl)phenyl]-1,4-dihydropyridin-3,5-dicarboxylate 3-ethylester 5-[3-(3pyridyl)-2-propynyl]ester] | 16.8 | 165 | 
6 | CCOC(=O)C1=C(c2ccc(-n3c(C)nc4cnccc43)cc2)NC(C)=C(C(=O)OCC#Cc2cnc3ccccc3c2)C1CCc1ccccc1 (stereo not shown) [Compound 18, 6-Methyl-2-[4-(2-methylimidazo[4,5-c]pyridin-1-yl)phenyl]-4-(2-phenylethyl)-1,4-dihydropyridin-3,5-dicarboxylate 3-ethylester 5-[3-(3-quinolyl)-2-propynyl]ester] | 16.0 | 157 | 
7 | COc1cc([C@@H]2c3cc4c(cc3[C@@H](O[C@@H]3O[C@@H]5CO[C@@H](C)O[C@H]5[C@H](O)[C@H]3O)[C@H]3COC(=O)[C@H]23)OCO4)cc(OC)c1O [VP-16, Etoposide, reference compound] |  |  | Average days of survival (VP-16 alone) ([1]; VP-16 alone 3 mg/kg, i.v. once per day for 5 days): 9.5 days and 11.0 days and 10.5 days; Rate of prolongation of life T/C (VP-16 alone) ([1]; VP-16 alone 3 mg/kg, i.v. once per day for 5 days, vs control): 103% and 108% and 102%; Effect of overcoming resistance T/V (VP-16 alone) [1, 4]: 100%; Average days of survival (VP-16 alone) ([2]; VP-16 alone 3 mg/kg): 10.6 days; Effect of overcoming resistance T/V (VP-16 alone) [2, 4]: 100%; Rate of prolongation of life T/C (VP-16 alone) ([2]; VP-16 alone 3 mg/kg, vs control): 102%
8 | CCOC(=O)C1=C(c2ccc(-n3c(C)nc4cnccc43)cc2)NC(C)=C(C(=O)OCC#Cc2cccnc2)C1CC(c1ccccc1)c1ccccc1 (stereo not shown) [Compound 60] | 16.3 | 158 | 
9 | CCOC(=O)C1=C(c2ccc(-n3c(C)nc4cnccc43)cc2)NC(C)=C(C(=O)OCC#Cc2cnc3ccccc3c2)C1/C=C/c1ccccc1 (stereo not shown) [Compound 19, 6-Methyl-2-[4-(2-methylimidazo[4,5-c]pyridin-1-yl)phenyl]-4-[(E)-2-(2-phenyl)ethenyl]-1,4-dihydropyridin-3,5-dicarboxylate 3-ethylester 5-[(3-quonolyl)-2-propynyl]ester] | 16.0 | 157 | 
10 | CCOC(=O)C1=C(c2ccc(-n3c(C(C)C)nc4cnccc43)cc2)NC(C)=C(C(=O)OCC#Cc2cccnc2)C1CC(c1ccccc1)c1ccccc1 (stereo not shown) [Compound 71, 4-(2,2-Diphenylethyl)-2-[4-(2-isopropylimidazo[4,5-c]pyridin-1-yl)phenyl]-6-methyl-1,4-dihydropyridin-3,5-dicarboxylate 3-ethylester 5-[3-(3-pyridyl)-2-propynyl]ester] |  |  | Average days of survival [2]: 17.4 days; Effect of overcoming resistance T/V [2]: 164%; Rate of prolongation of life T/C ([2]; vs control): 167%
11 | CCOC(=O)C1=C(c2ccc(-n3c(C)nc4cnccc43)cc2)NC(C)=C(C(=O)OCCC#Cc2cccnc2)C1CCc1ccccc1 (stereo not shown) [Compound 47, 6-Methyl-2-[4-(2-methylimidazo[4,5-c]pyridin-1-yl)phenyl]-4-(2-phenylethyl)-1,4-dihydropyridin-3,5-dicarboxylate 3-ethylester 5-[4-(3-pyridyl)-3-butynyl]ester] | 15.2 | 148 | 
12 | CCOC(=O)C1=C(c2ccc(-n3c(C)nc4cnccc43)cc2)NC(C)=C(C(=O)OCC#Cc2cccnc2)C1C1CCCCC1 (stereo not shown) [Compound 4, 4-Cyclohexyl-6-methyl-2-[4-(2-methylimidazo[4,5-c]pyridin-1-yl)phenyl]-1,4-dihydropyridin-3,5-dicarboxylate 3-ethylester 5-[3-(3-pyridyl)-2-propynyl]ester] | 14.8 | 161 | 
13 | CCOC(=O)C1=C(c2ccc(-n3c(C)nc4cnccc43)cc2)NC(C)=C(C(=O)OCC#Cc2cccnc2)C1C(C)c1ccccc1 (stereo not drawn) [Compound 7, 6-Methyl-4-(α-methylbenzyl)-2-[4-(2-methylimidazo[4,5-c]pyridin-1-yl)phenyl]-1,4-dihydropyridin-3,5-dicarboxylate 3-ethylester 5-[3-(3-pyridyl)-2-propynyl]ester] | 13.4 | 146 | 
14 | CCOC(=O)C1=C(c2ccc(-n3c(C)nc4cnccc43)cc2)NC(C)=C(C(=O)OCC#Cc2cccnc2)C1CC(c1ccc(F)cc1)c1ccc(F)cc1 (stereo not shown) [Compound 78] |  |  | Average days of survival [2]: 14.2 days; Effect of overcoming resistance T/V [2]: 134%; Rate of prolongation of life T/C ([2]; vs control): 137%
15 | CCOC(=O)C1=C(c2ccc(-n3c(C)nc4cnccc43)cc2)NC(C)=C(C(=O)OC(C)C#Cc2cccnc2)C1CCc1ccccc1 (stereo not shown) [Compound 23, 6-Methyl-2-[4-(2-methylimidazo[4,5-c]pyridin-1-yl)phenyl]-4-(2-phenylethyl)-1,4-dihydropyridin-3,5-dicarboxylate 3-ethylester 5-[1-methyl-3-(3-pyridyl)-2-propynyl]ester] | 15.8 | 172 | Average days of survival [2]: 13.0 days; Effect of overcoming resistance T/V [2]: 123%; Rate of prolongation of life T/C ([2]; vs control): 125%
16 | CCOC(=O)C1=C(c2ccc(-n3c(C)nc4cnccc43)cc2)NC(C)=C(C(=O)OCC#Cc2cccnc2)C1/C=C/c1ccccc1 (stereo not shown) [Compound 10, 6-Methyl-2-[4-(2-methylimidazo[4,5-c]pyridin-1-yl)phenyl]-4-[(E)-2-phenylethenyl]-1,4-dihydropyridin-3,5-dicarboxylate 3-ethylester 5-[3-(3-pyridyl)-2-propynyl]ester] | 17.0 | 185 | 
17 | CCOC(=O)C1=C(c2ccc(-n3c(C)nc4cnccc43)cc2)NC(C)=C(C(=O)OCC#Cc2cncc3ccccc23)C1/C=C/c1ccccc1 (stereo not shown) [Compound 20] | 14.7 | 144 | 
